Test results published in patent US12084610B2, “Compositions and methods for reducing deleterious atmospheric gas emissions from flooded ecosystems” (Arkea Bio Corp., priority 2022, dated 2024).

Tests used:
[1] = 3-NOP pH and temperature stability (HPLC); type: physicochemical; conditions: 1-month time period, temperature 4-30 C, pH 4-10
Source text: 3-NOP pH and Temperature Stability: Confirmed via HPLC over a 1-month time period at temperature between 4-30 C and pH 4-10.

[2] = 3-NOP volatility (mass loss open to air); type: physicochemical; conditions: 500 mg in 5 dram vial open to air, ~18-24 C, 15-30% RH, 6 days
Protocol: 3-NOP Volatility: 500 mg of 3-NOP in a 5 dram vial was left open to air at ˜18-24 C at 15-30% RH over the course of 6 days. Average mass loss is ˜0.25% per day.

## O=[N+]([O-])OCCCO [Formula 3-NOP, 3-nitrooxypropanol]
[1]
  3-NOP pH and Temperature Stability: Confirmed
[2]
  Average mass loss (volatility): ~0.25 % per day
